Drawing on PMC12298007 (Pharmaceuticals, 2025), this text covers Kd for 1 compound.

Molecules are shown by their SMILES. Non-standard residues stand in square brackets, D forms with d. Residues, ends and D or L forms follow the SMILES beside them. *: point of attachment. X1 = O=C(O)CC[C@H](NC(=O)N[C@@H](CCCCNC(=O)CCCCCCC(=O)*)C(=O)O)C(=O)O; d2Nal = N[C@H](Cc1ccc2ccccc2c1)C(=O)O; Mercaptoacetyl = O=C(CS)*

In the test the target is T1, human PSMA (CHO-K1-PSMA cells) (Homo sapiens, UniProt Q04609).
T1 construct: host or cells: CHO-K1 (lentiviral transduction, clone 5)
The test can be described thus: Saturation binding assay on CHO-K1-PSMA cells. The note with it: 2 h at 4 °C. The method, then: Saturation binding experiments were carried out with increasing concentrations of the radiolabeled peptides for 2 h at 4 °C. […] Cells were processed as previously published. […] The next day, the culture medium was replaced with 0.8 mL Ham's F 12 Nutrient Mix (1% FBS), and the cells were kept in the fridge for 30 min before the addition of the radioligand. […] The saturation assay was performed at 4 °C to avoid internalization. […] Total incubation volume per well: 1 mL. […] The obtained fractions and standard aliquots were measured in a γ-counter. […] Human GRPR reverse: [NT] Human β-ACTIN forward: [NT] Human β-ACTIN reverse: [NT] 3.3.4 Western blot Total protein was isolated from cell lines as previously described. PierceTM Coomassie Plus (Bradford) Protein Assay Kit (Thermo Scientific, Cat.Nr. 23236) was used for measuring protein concentrations and 30 μg (for PSMA) or 40 μg (for GRPR) protein per sample was used for SDS-PAGE and Western blot as previously described. PSMA (CST, D4S1F) Rabbit, GRPR (Alomone labs, Cat.Nr. ABR-002) Rabbit, α-Tubulin (Proteintech, Cat.Nr. 66031-1-Ig) Mouse and β-Actin (Proteintech, Cat.Nr. 66009-1-Ig) Mouse antibodies were utilized for detection of protein expression. Secondary antibodies used, included goat anti -rabbit IgG HRP conjugate (JD111036047) and rabbit anti -mouse IgG HRP conjugate (JD315035008). […] (Figure 6B, Table 1, main manuscript). […] 21

T1 sequence (Q04609 whole entry): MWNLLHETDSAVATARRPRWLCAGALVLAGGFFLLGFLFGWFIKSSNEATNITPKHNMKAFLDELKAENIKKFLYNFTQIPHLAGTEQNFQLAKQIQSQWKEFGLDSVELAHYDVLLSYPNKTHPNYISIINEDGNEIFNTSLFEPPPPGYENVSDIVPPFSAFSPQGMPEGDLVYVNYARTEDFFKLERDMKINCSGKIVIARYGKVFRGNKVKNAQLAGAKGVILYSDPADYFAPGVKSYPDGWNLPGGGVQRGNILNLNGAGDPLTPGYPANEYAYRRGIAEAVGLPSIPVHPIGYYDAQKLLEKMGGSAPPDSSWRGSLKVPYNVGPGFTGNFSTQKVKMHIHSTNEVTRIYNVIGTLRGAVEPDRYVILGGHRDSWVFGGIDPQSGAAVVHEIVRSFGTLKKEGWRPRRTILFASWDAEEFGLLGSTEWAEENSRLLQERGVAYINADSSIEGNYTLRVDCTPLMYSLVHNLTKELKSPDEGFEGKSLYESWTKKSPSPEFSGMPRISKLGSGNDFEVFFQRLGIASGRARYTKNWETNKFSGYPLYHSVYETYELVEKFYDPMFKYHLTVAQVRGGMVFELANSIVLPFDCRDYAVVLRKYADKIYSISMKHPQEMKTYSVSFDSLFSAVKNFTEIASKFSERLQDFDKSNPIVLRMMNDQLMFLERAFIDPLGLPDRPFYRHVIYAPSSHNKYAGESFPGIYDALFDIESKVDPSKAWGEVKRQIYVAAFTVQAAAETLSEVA

Consider `O=C(O)CC[C@H](NC(=O)N[C@@H](CCCCNC(=O)CCCCCCC(=O)NCCCC[C@@H](NC(=O)[C@@H](Cc1ccc2ccccc2c1)NC(=O)[C@@H](Cc1ccc(O)cc1)NC(=O)[C@@H](CO)NC(=O)[C@@H](CO)NC(=O)[C@@H](CO)NC(=O)CS)C(=O)O)C(=O)O)C(=O)O` [[^99mTc]Tc-PSMA-I&S, metal not drawn] (Mercaptoacetyl-[dS][dS][dS][dY][d2Nal][dK](X1)-OH), for which the dissociation constant (Kd) – broadly, the free concentration of one partner at which half of the binding sites on the other are occupied at equilibrium, for simple one-to-one binding – turned out to be 3.84 ± 0.44 nM.
